SMILES strings stand for the structures.

Sequence of ASK1 kinase (Q99683 whole entry): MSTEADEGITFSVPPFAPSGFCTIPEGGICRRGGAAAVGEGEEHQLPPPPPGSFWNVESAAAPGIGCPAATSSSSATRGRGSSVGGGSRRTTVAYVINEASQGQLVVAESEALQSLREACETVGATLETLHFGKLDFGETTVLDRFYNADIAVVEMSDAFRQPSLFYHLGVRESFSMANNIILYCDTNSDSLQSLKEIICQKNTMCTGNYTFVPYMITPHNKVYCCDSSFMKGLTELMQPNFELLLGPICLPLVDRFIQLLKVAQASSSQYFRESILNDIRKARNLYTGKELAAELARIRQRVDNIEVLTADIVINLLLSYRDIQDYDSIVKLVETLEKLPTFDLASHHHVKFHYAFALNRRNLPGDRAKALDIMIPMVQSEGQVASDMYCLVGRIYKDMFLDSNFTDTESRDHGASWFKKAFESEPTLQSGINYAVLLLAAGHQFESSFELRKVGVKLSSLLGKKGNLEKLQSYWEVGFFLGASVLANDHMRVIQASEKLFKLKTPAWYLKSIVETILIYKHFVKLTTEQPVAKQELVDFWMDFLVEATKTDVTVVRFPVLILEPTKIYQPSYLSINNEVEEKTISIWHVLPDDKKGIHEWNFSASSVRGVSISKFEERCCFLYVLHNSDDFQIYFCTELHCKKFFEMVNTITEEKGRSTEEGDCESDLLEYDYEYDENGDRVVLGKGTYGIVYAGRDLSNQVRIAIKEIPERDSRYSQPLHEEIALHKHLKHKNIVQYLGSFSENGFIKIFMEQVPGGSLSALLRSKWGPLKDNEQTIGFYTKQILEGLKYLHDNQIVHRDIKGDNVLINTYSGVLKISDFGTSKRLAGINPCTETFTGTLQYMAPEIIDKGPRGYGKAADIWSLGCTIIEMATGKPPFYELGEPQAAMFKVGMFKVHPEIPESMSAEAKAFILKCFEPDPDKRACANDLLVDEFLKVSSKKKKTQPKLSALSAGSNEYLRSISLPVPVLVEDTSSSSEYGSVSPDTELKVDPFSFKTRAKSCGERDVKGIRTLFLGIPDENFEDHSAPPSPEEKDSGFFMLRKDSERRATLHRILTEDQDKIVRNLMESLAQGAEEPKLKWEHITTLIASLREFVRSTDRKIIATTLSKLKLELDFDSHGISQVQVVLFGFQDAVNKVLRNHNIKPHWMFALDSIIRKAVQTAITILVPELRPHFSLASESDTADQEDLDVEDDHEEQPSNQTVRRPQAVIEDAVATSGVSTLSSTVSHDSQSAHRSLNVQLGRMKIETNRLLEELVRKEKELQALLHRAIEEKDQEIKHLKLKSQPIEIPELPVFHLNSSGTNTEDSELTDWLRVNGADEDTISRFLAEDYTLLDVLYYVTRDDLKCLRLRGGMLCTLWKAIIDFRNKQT

In the assay the target is ASK1 kinase (Homo sapiens (Human), UniProt Q99683). In words: RBC Kinase Assay (33P-ATP radiometric, myelin basic protein substrate). The class given is biochemical. Conditions: 20 ng ASK1 kinase, MBP substrate, 120 min at room temperature, 1% DMSO. As for the experimental part:
Example B1. RBC Kinase Assay Protocol
Base Reaction buffer: 20 mM Hepes (pH 7.5), 10 mM MgCl2, 1 mM EGTA, 0.02% Brij35, 0.02 mg/ml BSA, 0.1 mM Na3VO4, 2 mM DTT, and 1% DMSO were used for the assay.
Myelin base protein (MPB) was prepared in freshly prepared Base Reaction Buffer. 20 ng of ASK1 kinase was delivered into the substrate solution and gently mixed. Compounds in DMSO were delivered into the kinase reaction mixture (final DMSO concentration 1%). Commercially available 33P-ATP was delivered into the reaction mixture to initiate the reaction. The kinase reaction was incubated for 120 min. at room temperature. Reactions were spotted onto P81 ion exchange paper (Whatman #3698-915). Filters were washed extensively in 0.75% Phosphoric acid. Radioactivity on filters was read, and IC50 values were determined.
`Cc1cc(F)c(C(=O)Nc2cccc3c2OC[C@H](CF)n2cnnc2-3)cc1-n1cnc(C2CC2)c1` [Example 32, (R)-5-(4-cyclopropyl-1H-imidazol-1-yl)-2-fluoro-N-(5-(fluoromethyl)-5,6-dihydrobenzo[f][1,2,4]triazolo[4,3-d][1,4]oxazepin-8-yl)-4-methylbenzamide] registered an IC50 of 3.1 nM. As for `C[C@@H]1CN(c2cnc(C(=O)Nc3cccc4c3OCCn3nnnc3-4)cc2-n2cnc(C3CC3)c2)CCO1` [Example 55, (R)-4-(4-cyclopropyl-1H-imidazol-1-yl)-N-(5,6-dihydrobenzo[f]tetrazolo[1,5-d][1,4]oxazepin-8-yl)-5-(2-methylmorpholino)picolinamide], the figure is 2.1 nM. For `C[C@@H]1COc2c(NC(=O)c3cc(-n4cnc(C5CC5)c4)c(N4CCOCC4)cn3)cccc2-c2nnnn21` [Example 19, (R)-4-(4-cyclopropyl-1H-imidazol-1-yl)-N-(5-methyl-5,6-dihydrobenzo[f]tetrazolo[1,5-d][1,4]oxazepin-8-yl)-5-morpholinopicolinamide] the value was 2.2 nM; for `CC1(O)CN(c2cnc(C(=O)Nc3cccc4c3OCCn3nnnc3-4)cc2-n2cnc(C3CC3)c2)C1` [Example 67, 4-(4-cyclopropyl-1H-imidazol-1-yl)-N-(5,6-dihydrobenzo[f]tetrazolo[1,5-d][1,4]oxazepin-8-yl)-5-(3-hydroxy-3-methylazetidin-1-yl)picolinamide], 2.6 nM; for `Cc1cc(F)c(C(=O)Nc2cccc3c2OC[C@@H](C2CC2)n2cnnc2-3)cc1-n1cnc(C2CC2)c1` [Example 8, (R)-5-(4-cyclopropyl-1H-imidazol-1-yl)-N-(5-cyclopropyl-5,6-dihydrobenzo[f][1,2,4]triazolo[4,3-d][1,4]oxazepin-8-yl)-2-fluoro-4-methylbenzamide], 11.7 nM. For `O=C(Nc1cccc2c1OCCn1cnnc1-2)c1cc(-n2cnc(C3CC3)c2)ccn1` [Example 56, 4-(4-cyclopropyl-1H-imidazol-1-yl)-N-(5,6-dihydrobenzo[f][1,2,4]triazolo[4,3-d][1,4]oxazepin-8-yl)picolinamide] the value was 35.2 nM; for `Cc1cc(F)c(C(=O)Nc2cccc3c2OC2(CC2)Cn2cnnc2-3)cc1-n1cnc(C2CC2)c1` [Example 45, 5-(4-cyclopropyl-1H-imidazol-1-yl)-2-fluoro-4-methyl-N-(5H-spiro[benzo[f][1,2,4]triazolo[4,3-d][1,4]oxazepine-6,1′-cyclopropan]-8-yl)benzamide], 5.3 nM; for `Cc1cc(F)c(C(=O)Nc2cccc3c2OCCn2cncc2-3)cc1-n1cnc(C2CC2)c1` [Example 41, 5-(4-cyclopropyl-1H-imidazol-1-yl)-N-(5,6-dihydrobenzo[f]imidazo[1,5-d][1,4]oxazepin-8-yl)-2-fluoro-4-methylbenzamide], 5.7 nM. In turn, `CN1CCN(c2cnc(C(=O)Nc3cccc4c3OCCn3nnnc3-4)cc2-n2cnc(C3CC3)c2)CC1` [Example 54, 4-(4-cyclopropyl-1H-imidazol-1-yl)-N-(5,6-dihydrobenzo[f]tetrazolo[1,5-d][1,4]oxazepin-8-yl)-5-(4-methylpiperazin-1-yl)picolinamide] came in with a half-maximal inhibitory concentration (IC50) of 5.9 nM. For `Cc1cc(F)c(C(=O)Nc2cccc3c2OCC2(CC2)n2nnnc2-3)cc1-n1cnc(C2CC2)c1` [Example 14, 5-(4-cyclopropyl-1H-imidazol-1-yl)-2-fluoro-4-methyl-N-(6H-spiro[benzo[f]tetrazolo[1,5-d][1,4]oxazepine-5,1′-cyclopropan]-8-yl)benzamide] the value was 4.2 nM; for `CN(C)c1cnc(C(=O)Nc2cccc3c2OCCn2nnnc2-3)cc1-n1cnc(C2CC2)c1` [Example 60, 4-(4-cyclopropyl-1H-imidazol-1-yl)-N-(5,6-dihydrobenzo[f]tetrazolo[1,5-d][1,4]oxazepin-8-yl)-5-(dimethylamino)picolinamide], 6.9 nM; for `Cc1cc(F)c(C(=O)Nc2cccc3c2OCCn2cnnc2-3)cc1-n1cnc(C2CC2)c1` [Example 7, 5-(4-cyclopropyl-1H-imidazol-1-yl)-N-(5,6-dihydrobenzo[f][1,2,4]triazolo[4,3-d][1,4]oxazepin-8-yl)-2-fluoro-4-methylbenzamide], 8.5 nM. For `Cc1cc(F)c(C(=O)Nc2cccc3c2OC2(CC2)Cn2nnnc2-3)cc1-n1cnc(C2CC2)c1` [Example 59, 5-(4-cyclopropyl-1H-imidazol-1-yl)-2-fluoro-4-methyl-N-(5H-spiro[benzo[f]tetrazolo[1,5-d][1,4]oxazepine-6,1′-cyclopropan]-8-yl)benzamide] the value was 4.2 nM; for `O=C(Nc1cccc2c1OC[C@@H](CO)n1nnnc1-2)c1cc(-n2cnc(C3CC3)c2)ccn1` [Example 18, (R)-4-(4-cyclopropyl-1H-imidazol-1-yl)-N-(5-(hydroxymethyl)-5,6-dihydrobenzo[f]tetrazolo[1,5-d][1,4]oxazepin-8-yl)picolinamide], 11.6 nM. For `O=C(Nc1cccc2c1OCC1(CC1)n1cnnc1-2)c1cc(-n2cnc(C3CC3)c2)c(N2CCOCC2)cn1` [Example 25, 4-(4-cyclopropyl-1H-imidazol-1-yl)-5-morpholino-N-(6H-spiro[benzo[f][1,2,4]triazolo[4,3-d][1,4]oxazepine-5,1′-cyclopropan]-8-yl)picolinamide] the value was 3.3 nM. For the compound `CC1(O)CCN(c2cnc(C(=O)Nc3cccc4c3OCCn3nnnc3-4)cc2-n2cnc(C3CC3)c2)C1` (stereo not drawn) [Example 63, 4-(4-cyclopropyl-1H-imidazol-1-yl)-N-(5,6-dihydrobenzo[f]tetrazolo[1,5-d][1,4]oxazepin-8-yl)-5-(3-hydroxy-3-methylpyrrolidin-1-yl)picolinamide], the half-inhibitory concentration (IC50) was 2.7 nM.

In the case of `O=C(Nc1cccc2c1OCCn1nnnc1-2)c1cc(-n2cnc(C3CC3)c2)c(N2C[C@H]3C[C@@H]2CO3)cn1` [Example 62, 5-((1R,4R)-2-oxa-5-azabicyclo[2.2.1]heptan-5-yl)-4-(4-cyclopropyl-1H-imidazol-1-yl)-N-(5,6-dihydrobenzo[f]tetrazolo[1,5-d][1,4]oxazepin-8-yl)picolinamide], the 50% inhibitory concentration (IC50) worked out at 5.1 nM. In turn, `Cc1cc(F)c(C(=O)Nc2cccc3c2OCC(CO)n2cnnc2-3)cc1-n1cnc(C2CC2)c1` (stereo not drawn) [Example 81, 5-(4-cyclopropyl-1H-imidazol-1-yl)-2-fluoro-N-(5-(hydroxymethyl)-5,6-dihydrobenzo[f][1,2,4]triazolo[4,3-d][1,4]oxazepin-8-yl)-4-methylbenzamide] came in with an IC50 of 5.7 nM. `C[C@@H]1Cn2cnnc2-c2cccc(NC(=O)c3cc(-n4cnc(C5CC5)c4)ccn3)c2O1` [Example 52, (R)-4-(4-cyclopropyl-1H-imidazol-1-yl)-N-(6-methyl-5,6-dihydrobenzo[f][1,2,4]triazolo[4,3-d][1,4]oxazepin-8-yl)picolinamide] showed a concentration for half-maximal inhibition (IC50) of 5.9 nM. For `Cc1cc(F)c(C(=O)Nc2cccc3c2OC[C@@H](C)n2cncc2-3)cc1-n1cnc(C2CC2)c1` [Example 47, (R)-5-(4-cyclopropyl-1H-imidazol-1-yl)-2-fluoro-4-methyl-N-(5-methyl-5,6-dihydrobenzo[f]imidazo[1,5-d][1,4]oxazepin-8-yl)benzamide] the value was 6.8 nM. For `Cc1cc(F)c(C(=O)Nc2cccc3c2O[C@H](C)Cn2nnnc2-3)cc1-n1cnc(C2CC2)c1` [Example 43, (R)-5-(4-cyclopropyl-1H-imidazol-1-yl)-2-fluoro-4-methyl-N-(6-methyl-5,6-dihydrobenzo[f]tetrazolo[1,5-d][1,4]oxazepin-8-yl)benzamide] the value was 0.9 nM; for `Cc1cc(F)c(C(=O)Nc2cccc3c2OC[C@@H](CF)n2cnnc2-3)cc1-n1cnc(C2CC2)c1` [Example 28, (S)-5-(4-cyclopropyl-1H-imidazol-1-yl)-2-fluoro-N-(5-(fluoromethyl)-5,6-dihydrobenzo[f][1,2,4]triazolo[4,3-d][1,4]oxazepin-8-yl)-4-methylbenzamide], 4.5 nM. For `O=C(Nc1cccc2c1OC[C@@H](CF)n1cnnc1-2)c1cc(-n2cnc(C3CC3)c2)ccn1` [Example 29, (S)-4-(4-cyclopropyl-1H-imidazol-1-yl)-N-(5-(fluoromethyl)-5,6-dihydrobenzo[f][1,2,4]triazolo[4,3-d][1,4]oxazepin-8-yl)picolinamide] the value was 4.1 nM; for `Cc1cc(F)c(C(=O)Nc2cccc3c2O[C@@H](C)Cn2cnnc2-3)cc1-n1cnc(C2CC2)c1` [Example 35, (S)-5-(4-cyclopropyl-1H-imidazol-1-yl)-2-fluoro-4-methyl-N-(6-methyl-5,6-dihydrobenzo[f][1,2,4]triazolo[4,3-d][1,4]oxazepin-8-yl)benzamide], 2.5 nM; for `O=C(Nc1cccc2c1OC[C@H](CF)n1nnnc1-2)c1cc(-n2cnc(C3CC3)c2)ccn1` [Example 27, (R)-4-(4-cyclopropyl-1H-imidazol-1-yl)-N-(5-(fluoromethyl)-5,6-dihydrobenzo[f]tetrazolo[1,5-d][1,4]oxazepin-8-yl)picolinamide], 6.8 nM. The compound `CC(C)Oc1cnc(C(=O)Nc2cccc3c2OCCn2nnnc2-3)cc1-n1cnc(C2CC2)c1` [Example 68, 4-(4-cyclopropyl-1H-imidazol-1-yl)-N-(5,6-dihydrobenzo[f]tetrazolo[1,5-d][1,4]oxazepin-8-yl)-5-isopropoxypicolinamide] displayed a concentration for half-maximal inhibition (IC50) of 1.8 nM.

Take `Cc1cc(F)c(C(=O)Nc2cccc3c2OC[C@@H]([C@@H](C)O)n2nnnc2-3)cc1-n1cnc(C2CC2)c1` [Example 53, 5-(4-cyclopropyl-1H-imidazol-1-yl)-2-fluoro-N—((S)-5-((R)-1-hydroxyethyl)-5,6-dihydrobenzo[f]tetrazolo[1,5-d][1,4]oxazepin-8-yl)-4-methylbenzamide]: the IC50 came out at 6.4 nM.

A word on the IC50: it is the midpoint of a concentration-inhibition curve.

For the origin of these results see US10919911B2, “Tricyclic ASK1 inhibitors” (Terns, Inc., priority 2018, dated 2021).
